Tested on: patients with ischemic strokes
Assay: Phase 2 clinical study of spray in patients with ischemic strokes
Format: in vivo, human
Conditions: for RICA (near-wall): Maximal IMT of right internal carotid artery / LCCA (far-wall): Maximal IMT of left common carotid artery / LCCA (near-wall): Maximal IMT of left common carotid artery / LICA (far-wall): Maximal IMT of left internal carotid artery / LICA (near-wall): Maximal IMT of left internal carotid artery / RCCA (far-wall): Maximal IMT of right common carotid artery / RCCA (near-wall): Maximal IMT of right common carotid artery / RICA (far-wall): Maximal IMT of right internal carotid artery: ultrasonography
Protocol: Each patient enrolled in Group A was administered the investigational drug in a double-blind manner for 16 weeks starting between 3 and 60 days after the onset of stroke symptoms (Day 1 of the study). The patients and/or their caregivers were instructed how to apply the investigational drug accurately so that patients or their caregivers would administer 20 sprays/dose of either the investigational drug or placebo twice daily (approximately every 12 hours) for a total daily dose of 280 mg of investigational drug. The 20 sprays of investigational drug were administered as follows: 4 sprays around the neck, 2 sprays to the left shoulder, 2 sprays to the right shoulder, 6 sprays to the chest, 3 sprays to the left leg, and 3 sprays to the right leg. Each spray was sprayed on a different area of the skin to reach maximum absorption. The patient would wait for at least 5 minutes to dress after the last spray so that the skin became completely dry.
Patients were asked to return to the study site at Weeks 4, 8, 12, and 16 for efficacy and safety assessments. After the Week 16 assessments had been performed, patients would start the open-label period of the study the next day and receive active treatment in an open-label manner through the end of the study (EOS) at Week 32. That is, patients who were receiving active treatment would continue to receive active treatment, and patients who were receiving placebo would switch to active treatment for the remaining 16 weeks of the study. Patients would receive only 1 dose of investigational drug on the Week 16 visit day. Patients would return to the study site at Week 24 and Week 32 (EOS) for efficacy and safety assessments. An Early Termination visit would occur if the patient was discontinued from the study prematurely. Patients would have a follow-up visit approximately 14 days after the Early Termination visit or the Week 32 (EOS) visit.
The spray bottle deposits […] of spray solution and 7 mg 2-(diethylamino)ethyl acetoxybenzoate free base per spray on the skin. Subjects were to apply each spray to a different skin area around the neck, chest, legs and arms based on the randomized dose level assigned.
The treatment was administered twice daily (approximately every 12 hours) starting on Day 1 of the study through the Week 16 visit. Each spray was sprayed on a different area of the skin to reach maximum absorption.
Group A administered the 20 sprays of investigational drug as follows: 4 sprays around the neck, 2 sprays to the left shoulder, 2 sprays to the right shoulder, 6 sprays to the chest, 3 sprays to the left leg, and 3 sprays to the right leg twice daily for a total of 40 sprays (280 mg)/day. Each spray was sprayed on a different area of the skin to reach maximum absorption.
Group B administered the investigational drug as follows: 2 sprays to the front of the neck, 1 spray to the left side of the neck, 1 spray to the right side of the neck, 6 sprays to the chest close to the neck twice daily for a total of 20 sprays (140 mg)/day. Each spray was sprayed on a different area of the skin to reach maximum absorption.
Group C administered the investigational drug as follows: 1 spray to the front of the neck, 1 spray to the left side of the neck, 1 spray to the right side of the neck, 2 sprays to the chest twice daily for a total of 10 sprays (70 mg/day). Each spray was sprayed on a different area of the skin to reach maximum absorption.
The primary efficacy endpoint is the mRS score at Week 16 dichotomized as ‘success’ (0 to 2) or failure (>2) for all randomized patients at Week 16.
The mRS score was assessed at screening; Day 1 (baseline); Weeks 4, 8, 12, 16, 24, and 32; Early Termination Visit (if applicable) and Follow-Up Visit.
The mRS score measures the patient's functional level of activity and is dichotomized as a favorable outcome (score=0-2) versus unfavorable (score […]). […]

[1] = 10 Sprays (70 mg/dose bid), Week 24
[2] = 10 Sprays (70 mg/dose bid), Week 32
[3] = 10 Sprays (70 mg/dose bid), baseline
[4] = 20 Sprays (140 mg/dose bid), Baseline
[5] = 20 Sprays (140 mg/dose bid), Week 4
[6] = 20 Sprays (140 mg/dose bid), Week 8
[7] = 20 Sprays (140 mg/dose bid), Week 16
[8] = 20 Sprays (140 mg/dose bid), Week 24
[9] = 20 Sprays (140 mg/dose bid), Week 32
[10] = 20 Sprays (140 mg/dose bid), baseline
[11] = during the study, all three doses

## CCN(CC)CCOC(=O)c1ccccc1OC(C)=O.Cl [Compound-1]
10 Sprays (70 mg/dose bid), Week 16
  RICA (near-wall): Maximal IMT of right internal carotid artery: 0.9 ± 0.5 mm
[1]
  Modified Rankin Scale Score (mRS): 1.5 ± 0.5
  National Institute of Health Stroke Scale: 1.6 ± 0.6
[2]
  Modified Rankin Scale Score (mRS): 1.4 ± 0.5
  National Institute of Health Stroke Scale: 1.3 ± 0.4
  LCCA (far-wall): Maximal IMT of left common carotid artery: 1.7 ± 0.8 mm
  LCCA (near-wall): Maximal IMT of left common carotid artery: 1.2 ± 0.6 mm
  LICA (far-wall): Maximal IMT of left internal carotid artery: 0.6 ± 0.3 mm
  LICA (near-wall): Maximal IMT of left internal carotid artery: 0.7 ± 0.4 mm
  RCCA (far-wall): Maximal IMT of right common carotid artery: 1.3 ± 0.8 mm
  RCCA (near-wall): Maximal IMT of right common carotid artery: 1.3 ± 0.7 mm
  RICA (far-wall): Maximal IMT of right internal carotid artery: 0.8 ± 0.2 mm
  RICA (near-wall): Maximal IMT of right internal carotid artery: 0.7 ± 0.4 mm
[3]
  Modified Rankin Scale Score (mRS): 3.5 ± 0.5
  National Institute of Health Stroke Scale: 5.9 ± 2.0
[4]
  LCCA (far-wall): Maximal IMT of left common carotid artery: 6.5 ± 2.0 mm
  LCCA (near-wall): Maximal IMT of left common carotid artery: 7.6 ± 1.6 mm
  LICA (far-wall): Maximal IMT of left internal carotid artery: 5.7 ± 1.7 mm
  LICA (near-wall): Maximal IMT of left internal carotid artery: 5.6 ± 1.7 mm
  RCCA (far-wall): Maximal IMT of right common carotid artery: 8.8 ± 2.3 mm
  RCCA (near-wall): Maximal IMT of right common carotid artery: 7.5 ± 1.8 mm
  RICA (far-wall): Maximal IMT of right internal carotid artery: 4.7 ± 1.6 mm
  RICA (near-wall): Maximal IMT of right internal carotid artery: 4.9 ± 1.3 mm
[5]
  Modified Rankin Scale Score (mRS): 2.1 ± 0.5
  National Institute of Health Stroke Scale: 4.6 ± 1.6
[6]
  Modified Rankin Scale Score (mRS): 1.8 ± 0.4
  National Institute of Health Stroke Scale: 3.0 ± 1.1
[7]
  Modified Rankin Scale Score (mRS): 1.4 ± 0.5
  National Institute of Health Stroke Scale: 1.9 ± 0.9
  LCCA (far-wall): Maximal IMT of left common carotid artery: 1.2 ± 0.6 mm
  LCCA (near-wall): Maximal IMT of left common carotid artery: 1.3 ± 0.5 mm
  LICA (far-wall): Maximal IMT of left internal carotid artery: 0.6 ± 0.4 mm
  LICA (near-wall): Maximal IMT of left internal carotid artery: 0.7 ± 0.3 mm
  RCCA (far-wall): Maximal IMT of right common carotid artery: 1.4 ± 0.3 mm
  RCCA (near-wall): Maximal IMT of right common carotid artery: 1.2 ± 0.5 mm
  RICA (far-wall): Maximal IMT of right internal carotid artery: 0.6 ± 0.2 mm
  RICA (near-wall): Maximal IMT of right internal carotid artery: 0.8 ± 0.3 mm
[8]
  Modified Rankin Scale Score (mRS): 1.3 ± 0.5
  National Institute of Health Stroke Scale: 1.4 ± 0.6
[9]
  Modified Rankin Scale Score (mRS): 1.3 ± 0.4
  National Institute of Health Stroke Scale: 1.1 ± 0.3
  LCCA (far-wall): Maximal IMT of left common carotid artery: 1.1 ± 0.7 mm
  LCCA (near-wall): Maximal IMT of left common carotid artery: 0.8 ± 0.5 mm
  LICA (far-wall): Maximal IMT of left internal carotid artery: 0.5 ± 0.3 mm
  LICA (near-wall): Maximal IMT of left internal carotid artery: 0.6 ± 0.3 mm
  RCCA (far-wall): Maximal IMT of right common carotid artery: 1.0 ± 0.5 mm
  RCCA (near-wall): Maximal IMT of right common carotid artery: 0.9 ± 0.4 mm
  RICA (far-wall): Maximal IMT of right internal carotid artery: 0.5 ± 0.3 mm
  RICA (near-wall): Maximal IMT of right internal carotid artery: 0.6 ± 0.5 mm
[10]
  Modified Rankin Scale Score (mRS): 3.6 ± 0.5
  National Institute of Health Stroke Scale: 6.1 ± 2.3
[11]
  Mean and median blood pressures: remained unchanged
  upper GI tract ulcer complication (bleeding episode, perforation, or gastric outlet obstruction): No notable
mild, all three doses
  skin irritation, total incidences: 6
Neck arteries by ultrasonography, spray vs placebo
  improvement of atherosclerosis: can reverse atherosclerosis
Spray vs placebo
  functional recovery post strokes (results of BI, words): can improve the functional recovery post strokes
  functional recovery post strokes (results of NIHSS, words): can improve the functional recovery post strokes
  functional recovery post strokes (results of mRS, words): can improve the functional recovery post strokes
Very mild, none appeared to be drug related, all three doses
  Gastrointestinal disorders, incidences in the study: 15

Reference: patent publication US20250099491A1, “PREVENTION OR TREATMENT OF CARDIOVASCULAR DISEASES WITH HIGH PENETRATION PRODRUGS OF ASPIRIN AND OTHER NSAIDS” (Techfields Inc., priority 2022, published 2025)
